Results on 19 molecules are retold here after US9125913B2, “Bcl-2-selective apoptosis-inducing agents for the treatment of cancer and immune diseases” (AbbVie Inc., priority 2008, dated 2015).

In the experiment the test system is GST-Bcl-2. The experiment is described as follows: TR-FRET binding assay, Bcl-2. The conditions noted are these: TR-FRET Ki values. The procedure, abridged: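 Compounds serially diluted in DMSO from 50 μM (2× starting concentration, 10% DMSO), mixed with GST-tagged protein, F-Bak peptide probe and Tb-labeled antibody, incubated 3 h at room temperature.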
A general note: In TR-FRET formats the signal depends on donor and acceptor labels being close together.
Take `CC1(C)CCC(CN2CCN(c3ccc(C(=O)NS(=O)(=O)c4ccc(NCc5cncs5)c([N+](=O)[O-])c4)c(Oc4ccc5[nH]ccc5c4)c3)CC2)=C(c2ccc(Cl)cc2)C1` [EXAMPLE 288, 4-(4-{[2-(4-chlorophenyl)-4,4-dimethylcyclohex-1-en-1-yl]methyl}piperazin-1-yl)-2-(1H-indol-5-yloxy)-N-({3-nitro-4-[(1,3-thiazol-5-ylmethyl)amino]phenyl}sulfonyl)benzamide]: the “Binding selectivity ratio (Bcl-XL Ki/Bcl-2 Ki)” value (“Binding selectivity ratio” for short) was greater than 3730.9.
To `CC1(C)CCC(CN2CCN(c3ccc(C(=O)NS(=O)(=O)c4ccc(NC5CCN(C6CCOCC6)CC5)c([N+](=O)[O-])c4)c(Oc4ccc5[nH]ccc5c4)c3F)CC2)=C(c2ccc(Cl)cc2)C1` [EXAMPLE 185, 4-(4-{[2-(4-chlorophenyl)-4,4-dimethylcyclohex-1-en-1-yl]methyl}piperazin-1-yl)-3-fluoro-2-(1H-indol-5-yloxy)-N-({3-nitro-4-[(1-tetrahydro-2H-pyran-4-ylpiperidin-4-yl)amino]phenyl}sulfonyl)benzamide] belongs 361.5.
Under `CC1(C)CCC(CN2CCN(c3ccc(C(=O)NS(=O)(=O)c4ccc(NC(CO)C5CCOCC5)c([N+](=O)[O-])c4)c(Oc4ccc5[nH]ccc5c4)c3)CC2)=C(c2ccc(Cl)cc2)C1` (stereo not shown) [EXAMPLE 242, 4-(4-{[2-(4-chlorophenyl)-4,4-dimethylcyclohex-1-en-1-yl]methyl}piperazin-1-yl)-N-({4-[(2-hydroxy-1-tetrahydro-2H-pyran-4-ylethyl)amino]-3-nitrophenyl}sulfonyl)-2-(1H-indol-5-yloxy)benzamide] stands greater than 367.6; under `CC1(C)CCC(CN2CCN(c3ccc(C(=O)NS(=O)(=O)c4ccc(OCCC5CCOCC5)c([N+](=O)[O-])c4)c(Oc4cccc5[nH]ccc45)c3)CC2)=C(c2ccc(Cl)cc2)C1` [EXAMPLE 314, 4-(4-{[2-(4-chlorophenyl)-4,4-dimethylcyclohex-1-en-1-yl]methyl}piperazin-1-yl)-2-(1H-indol-4-yloxy)-N-{[3-nitro-4-(2-tetrahydro-2H-pyran-4-ylethoxy)phenyl]sulfonyl}benzamide], greater than 215.3.
As for `CN1CCN(Nc2ccc(S(=O)(=O)NC(=O)c3ccc(N4CCN(CC5=C(c6ccc(Cl)cc6)CC(C)(C)CC5)CC4)cc3Oc3ccc4[nH]ccc4c3)cc2S(=O)(=O)C(F)(F)F)CC1` [EXAMPLE 220, 4-(4-{[2-(4-chlorophenyl)-4,4-dimethylcyclohex-1-en-1-yl]methyl}piperazin-1-yl)-2-(1H-indol-5-yloxy)-N-({4-[(4-methylpiperazin-1-yl)amino]-3-[(trifluoromethyl)sulfonyl]phenyl}sulfonyl)benzamide], the “Binding selectivity ratio” value came out at 163.7.
As for `CN(C)CCOc1cccc(-c2ccc(Cl)cc2)c1CN1CCN(c2ccc(C(=O)NS(=O)(=O)c3ccc(NC4CCN(C5CCOCC5)CC4)c([N+](=O)[O-])c3)c(Oc3cccc4[nH]ccc34)c2)CC1` [EXAMPLE 199, 4-[4-({4′-chloro-3-[2-(dimethylamino)ethoxy]-1,1′-biphenyl-2-yl}methyl)piperazin-1-yl]-2-(1H-indol-4-yloxy)-N-({3-nitro-4-[(1-tetrahydro-2H-pyran-4-ylpiperidin-4-yl)amino]phenyl}sulfonyl)benzamide], the “Binding selectivity ratio” value stood at 369.8.
As to `CC1(C)CCC(CN2CCN(c3ccc(C(=O)NS(=O)(=O)c4ccc(OCC5(C)COC5)c([N+](=O)[O-])c4)c(Oc4ccc5[nH]ccc5c4)c3)CC2)=C(c2ccc(Cl)cc2)C1` [EXAMPLE 286, 4-(4-{[2-(4-chlorophenyl)-4,4-dimethylcyclohex-1-en-1-yl]methyl}piperazin-1-yl)-2-(1H-indol-5-yloxy)-N-({4-[(3-methyloxetan-3-yl)methoxy]-3-nitrophenyl}sulfonyl)benzamide], the “Binding selectivity ratio” value is greater than 1165.0.
Under `CC1(C)CCC(CN2CCN(c3ccc(C(=O)NS(=O)(=O)c4cnc(OCC5(F)CCOCC5)c(Cl)c4)c(Oc4cccc5[nH]ccc45)c3)CC2)=C(c2ccc(Cl)cc2)C1` [EXAMPLE 405, N-({5-chloro-6-[(4-fluorotetrahydro-2H-pyran-4-yl)methoxy]pyridin-3-yl}sulfonyl)-4-(4-{[2-(4-chlorophenyl)-4,4-dimethylcyclohex-1-en-1-yl]methyl}piperazin-1-yl)-2-(1H-indol-4-yloxy)benzamide] stands 1395; under `CC1(C)CCC(CN2CCN(c3ccc(C(=O)NS(=O)(=O)c4ccc(OCCCS(C)(=O)=O)c([N+](=O)[O-])c4)c(Oc4cccc5[nH]ccc45)c3)CC2)=C(c2ccc(Cl)cc2)C1` [EXAMPLE 316, 4-(4-{[2-(4-chlorophenyl)-4,4-dimethylcyclohex-1-en-1-yl]methyl}piperazin-1-yl)-2-(1H-indol-4-yloxy)-N-({4-[3-(methylsulfonyl)propoxy]-3-nitrophenyl}sulfonyl)benzamide], 533.7; under `CC1(C)CCC(CN2CCN(c3ccc(C(=O)NS(=O)(=O)c4ccc(NCCC(F)(F)F)c([N+](=O)[O-])c4)c(Oc4cccc5[nH]ccc45)c3)CC2)=C(c2ccc(Cl)cc2)C1` [EXAMPLE 323, 4-(4-{[2-(4-chlorophenyl)-4,4-dimethylcyclohex-1-en-1-yl]methyl}piperazin-1-yl)-2-(1H-indol-4-yloxy)-N-({3-nitro-4-[(3,3,3-trifluoropropyl)amino]phenyl}sulfonyl)benzamide], greater than 695.2.
As to `CC1(C)CCC(CN2CCN(c3ccc(C(=O)NS(=O)(=O)c4ccc(NC5CCN(CCCO)CC5)c([N+](=O)[O-])c4)c(Oc4ccc5[nH]ccc5c4)c3)CC2)=C(c2ccc(Cl)cc2)C1` [EXAMPLE 197, 4-(4-{[2-(4-chlorophenyl)-4,4-dimethylcyclohex-1-en-1-yl]methyl}piperazin-1-yl)-N-[(4-{[1-(3-hydroxypropyl)piperidin-4-yl]amino}-3-nitrophenyl)sulfonyl]-2-(1H-indol-5-yloxy)benzamide], the “Binding selectivity ratio” value stood at 193.
To `CC1(C)CCC(CN2CCN(c3ccc(C(=O)NS(=O)(=O)c4ccc(NCCC#N)c([N+](=O)[O-])c4)c(Oc4cccc5[nH]ccc45)c3)CC2)=C(c2ccc(Cl)cc2)C1` [EXAMPLE 320, 4-(4-{[2-(4-chlorophenyl)-4,4-dimethylcyclohex-1-en-1-yl]methyl}piperazin-1-yl)-N-({4-[(2-cyanoethyl)amino]-3-nitrophenyl}sulfonyl)-2-(1H-indol-4-yloxy)benzamide] belongs 103.6; to `CC1(C)CCC(CN2CCN(c3ccc(C(=O)NS(=O)(=O)c4ccc(N[C@@H]5CCN(CC(F)F)C5)c([N+](=O)[O-])c4)c(Oc4cccc5[nH]cnc45)c3)CC2)=C(c2ccc(Cl)cc2)C1` [EXAMPLE 407, 2-(1H-benzimidazol-4-yloxy)-4-(4-{[2-(4-chlorophenyl)-4,4-dimethylcyclohex-1-en-1-yl]methyl}piperazin-1-yl)-N-[(4-{[(3R)-1-(2,2-difluoroethyl)pyrrolidin-3-yl]amino}-3-nitrophenyl)sulfonyl]benzamide], 4931.
For `CC1(C)CCC(CN2CCN(c3ccc(C(=O)NS(=O)(=O)c4ccc(NN5CCN(CCO)CC5)c([N+](=O)[O-])c4)c(Oc4ccc5[nH]ccc5c4)c3)CC2)=C(c2ccc(Cl)cc2)C1` [EXAMPLE 233, 4-(4-{[2-(4-chlorophenyl)-4,4-dimethylcyclohex-1-en-1-yl]methyl}piperazin-1-yl)-N-[(4-{[4-(2-hydroxyethyl)piperazin-1-yl]amino}-3-nitrophenyl)sulfonyl]-2-(1H-indol-5-yloxy)benzamide], the “Binding selectivity ratio” value is recorded as greater than 2714.3.
Consider `CC1(C)CCC(CN2CCN(c3ccc(C(=O)NS(=O)(=O)c4ccc(NCC(F)F)c([N+](=O)[O-])c4)c(Oc4ccc5[nH]ccc5c4)c3)CC2)=C(c2ccc(Cl)cc2)C1` [EXAMPLE 302, 4-(4-{[2-(4-chlorophenyl)-4,4-dimethylcyclohex-1-en-1-yl]methyl}piperazin-1-yl)-N-({4-[(2,2-difluoroethyl)amino]-3-nitrophenyl}sulfonyl)-2-(1H-indol-5-yloxy)benzamide], for which the “Binding selectivity ratio” value is given as greater than 1309.5.
To `COCCCNc1ccc(S(=O)(=O)NC(=O)c2ccc(N3CCN(CC4=C(c5ccc(Cl)cc5)CC(C)(C)CC4)CC3)cc2Oc2ccc3[nH]ccc3c2)cc1[N+](=O)[O-]` [EXAMPLE 317, 4-(4-{[2-(4-chlorophenyl)-4,4-dimethylcyclohex-1-en-1-yl]methyl}piperazin-1-yl)-2-(1H-indol-5-yloxy)-N-({4-[(3-methoxypropyl)amino]-3-nitrophenyl}sulfonyl)benzamide] belongs greater than 235.9.
As to `CC(c1ccccc1-c1ccc(Cl)cc1)N1CCN(c2ccc(C(=O)NS(=O)(=O)c3ccc(NCC4CCOCC4)c([N+](=O)[O-])c3)c(Oc3cccc4[nH]ccc34)c2)CC1` (stereo not shown) [Example 175, 4-{4-[1-(4′-chloro-1,1′-biphenyl-2-yl)ethyl]piperazin-1-yl}-2-(1H-indol-4-yloxy)-N-({3-nitro-4-[(tetrahydro-2H-pyran-4-ylmethyl)amino]phenyl}sulfonyl)benzamide], the “Binding selectivity ratio” value was greater than 6600.
On to `CNc1ccc(S(=O)(=O)NC(=O)c2ccc(N3CCN(CC4=C(c5ccc(Cl)cc5)CC(C)(C)CC4)CC3)cc2Oc2cccc3[nH]ccc23)cc1[N+](=O)[O-]` [EXAMPLE 246, 4-(4-{[2-(4-chlorophenyl)-4,4-dimethylcyclohex-1-en-1-yl]methyl}piperazin-1-yl)-2-(1H-indol-4-yloxy)-N-{[4-(methylamino)-3-nitrophenyl]sulfonyl}benzamide], for which the “Binding selectivity ratio” value stood at 490.9.
To `CC1(C)CCC(CN2CCN(c3ccc(C(=O)NS(=O)(=O)c4ccc(NC5CCN(CC6CC6)CC5)c([N+](=O)[O-])c4)c(Oc4ccc5[nH]ccc5c4)c3)CC2)=C(c2ccc(Cl)cc2)C1` [EXAMPLE 214, 4-(4-{[2-(4-chlorophenyl)-4,4-dimethylcyclohex-1-en-1-yl]methyl}piperazin-1-yl)-N-[(4-{[1-(cyclopropylmethyl)piperidin-4-yl]amino}-3-nitrophenyl)sulfonyl]-2-(1H-indol-5-yloxy)benzamide] belongs 776.6.
